Measurements from article PMC4900891 (Biochemistry, 2016).
Residue numbers refer to the chain shown, from its start. Several values for one entry are separate records, joined by “and”; a condition that tells them apart may be missing. Identical values can stand only once. Square brackets hold non-standard residues; d marks the D form. Peptide text beside a SMILES is read from it. pY = N[C@@H](Cc1ccc(OP(=O)(O)O)cc1)C(=O)O

Tests used:
SHP2^WT [1] = target: T1, SHP2^WT (Homo sapiens, UniProt Q06124); assay: Phosphopeptide activation of SHP2; format: biochemical
T1 sequence (Q06124 1-525): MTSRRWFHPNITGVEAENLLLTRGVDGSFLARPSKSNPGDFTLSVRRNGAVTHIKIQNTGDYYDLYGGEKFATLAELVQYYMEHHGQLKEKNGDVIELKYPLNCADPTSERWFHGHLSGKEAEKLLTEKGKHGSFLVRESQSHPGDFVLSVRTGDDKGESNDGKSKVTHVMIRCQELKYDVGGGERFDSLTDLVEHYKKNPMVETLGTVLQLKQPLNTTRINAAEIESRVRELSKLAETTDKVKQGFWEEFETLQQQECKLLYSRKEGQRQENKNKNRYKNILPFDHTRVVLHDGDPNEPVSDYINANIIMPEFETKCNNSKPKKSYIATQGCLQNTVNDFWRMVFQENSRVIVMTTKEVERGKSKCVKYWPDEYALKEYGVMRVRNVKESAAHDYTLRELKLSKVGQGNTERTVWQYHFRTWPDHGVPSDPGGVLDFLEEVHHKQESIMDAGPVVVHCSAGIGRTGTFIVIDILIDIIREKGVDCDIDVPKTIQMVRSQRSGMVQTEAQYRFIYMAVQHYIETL

SHP2^E76Q [2] = target: T2, SHP2^E76Q (Homo sapiens, UniProt Q06124, E76Q); assay: Phosphopeptide activation of SHP2; format: biochemical
T2 sequence (Q06124 1-525 E76Q): T1 sequence (Q06124 1-525) with E76Q

SHP2^S502P [3] = target: T3, SHP2^S502P (Homo sapiens, UniProt Q06124, S502P); assay: Phosphopeptide activation of SHP2; format: biochemical
T3 sequence (Q06124 1-525 S502P): T1 sequence (Q06124 1-525) with S502P

SHP2^PTP = details: substrate DiFMUP, basal (no peptide); 0.00625 nM enzyme, Hepes pH 7.2
SHP2^S502P [4] = target: T3, SHP2^S502P; assay: Basal DiFMUP dephosphorylation kinetics, S502P; format: biochemical; details: substrate DiFMUP, basal (no peptide); 0.025 nM enzyme, Hepes pH 7.2
SHP2^E76Q [5] = target: T2, SHP2^E76Q; assay: Basal DiFMUP dephosphorylation kinetics, E76Q; format: biochemical; details: substrate DiFMUP, basal (no peptide); 0.05 nM enzyme, Hepes pH 7.2
SHP2^WT [6] = target: T1, SHP2^WT; details: substrate DiFMUP, basal (no peptide); 2.5 nM enzyme, Hepes pH 7.2
SHP2 (both SH2 domains) = details: cited from earlier work

## CC[C@H](C)[C@H](NC(=O)[C@H](Cc1ccc(OP(=O)(O)O)cc1)NC(=O)[C@H](CC(N)=O)NC(=O)[C@H](CC(C)C)NC(=O)[C@@H](N)CO)C(=O)N[C@@H](CC(=O)O)C(=O)N[C@@H](CC(C)C)C(=O)N[C@@H](CC(=O)O)C(=O)N[C@@H](CC(C)C)C(=O)N[C@H](C(=O)N[C@@H](CCCCN)C(=O)O)C(C)C [PY1172] (H-SLN[pY]IDLDLVK-OH)
SHP2^WT [1]
  EC50: 10000 nM
SHP2^E76Q [2]
  EC50: 350 nM
SHP2^S502P [3]
  EC50: 830 nM

## Cc1cc(=O)oc2c(F)c(OP(=O)(O)O)c(F)cc12 [DiFMUP, 6,8-Difluoro-4-Methylumbelliferyl Phosphate]
SHP2^PTP
  kcat/KM: 298000 M⁻¹ s⁻¹
SHP2^S502P [4]
  kcat/KM: 77000 M⁻¹ s⁻¹ and 76500 M⁻¹ s⁻¹
SHP2^E76Q [5]
  kcat/KM: 71000 M⁻¹ s⁻¹ and 71200 M⁻¹ s⁻¹
SHP2^WT [6]
  kcat/KM: 2100 M⁻¹ s⁻¹

## SLNY(p)IDLDLVK-dPEG8-LSTY(p)ASINFQK [PY1172-PEG-PY1222]
SHP2^WT [1]; double-phosphorylated peptide, low-micromolar concentrations
  extent of activation: complete activation
SHP2^E76Q [2]; relative to SHP2^WT
  sensitivity to bisphosphorylated peptide: greatest sensitivity
SHP2^S502P [3]; relative to SHP2^WT
  sensitivity to bisphosphorylated peptide: greatest sensitivity
SHP2 (both SH2 domains)
  SH2 domain occupancy and activation: occupies both SH2 domains and induces full activation of the phosphatase
